Like-named read-outs stand apart in the source and are kept apart here. Marks after values point to notes of the source that are not given here.
Key:
Renca cells = experiment: Microtubule disruption and cell morphology in Renca cells; format: cell-based, mouse; conditions: 2.5 and 5 µM
Method: Renca cells were plated in cell culture-treated 96-well plates (Grenier Bio-One North America Inc., Monroe, NC, USA) at 2000 cells/well and allowed to adhere for 24 h before treatment. Hoechst 33342 (1 μg/mL) in complete RPMI 1640 medium was used to stain the cell nuclei for 15 min at 37 °C. […] The medium was removed to reduce background fluorescence, followed by two wash cycles with fresh medium. Fresh medium containing 25 μM of verapamil hydrochloride was added to the stained cells prior to imaging. Images of the microtubule cytoskeleton and nuclei were collected over 3 h using a Biotek Lionheart microscope ELx800 in fluorescence mode with a 20× objective.

[1] = Pharmacokinetic study in Renca-luc tumor-bearing BALB/c mice; format: in vivo, mouse; conditions: for Tmax / half-life / Cmax: ip; for Cmax: read-out: Cmax
Method: Plasma and tissues were harvested at various time points (20 min to 16 h) from Renca-luc tumor-bearing BALB/c male mice following the administration of OXi8007 IP. Mice treated with 250 mg/kg were sacrificed at 20 min (n = 3), 1 h (n = 4), 2 h (n = 4), 4 h (n = 4), 8 h (n = 4), and 16 h (n = 4). Mice were anesthetized, exsanguinated, the tissues were blotted, and then they were weighed and frozen in liquid nitrogen. Homogenized plasma and tissue samples were extracted with acetonitrile with a bead mill; internal standard (CA4 or tri-labeled ^13C-OXi8006) was added to each sample to reach a final concentration of 10 ppb. Samples were centrifuged twice to remove precipitated proteins (16,260× g for 10 min at 4 °C). Clear supernatant was transferred into MS vials, and formic acid was added to a final concentration of 0.1% for LC-MS analysis. […] Mobile phase A consisted of 0.1% v/v formic acid in water, and mobile phase B was acetonitrile, which was mixed by the binary pump with an elution gradient at a flow rate of 0.6 mL/min. Data were analyzed using Xcalibur 4.6 software based on exact masses, and Phoenix WinNonlin 8.5.0 software was used to determine the pharmacokinetic parameters based on a non-compartmental model.

[2] = test system: orthotopic Renca-luc tumors; experiment: Acute response by dynamic bioluminescence imaging (BLI) and histology; format: in vivo, mouse
Method: Anesthesia was induced with 1–3% isoflurane, and the mice were placed on the warmed imaging stage of an IVIS Spectrum® small animal imaging system (Xenogen/PerkinElmer Inc., Waltham, MA, USA) with continuous exposure to 1 to 2% isoflurane, as described previously. On successive occasions, mice were administered 75 µL of D-luciferin (sodium salt; Gold Biotechnology, St. Louis, MO, USA) SC in the fore back neck region as a 40 mg/mL solution in 0.9% saline. The BLI signal was quantified as the total flux using Living Image Software 4.3.7. Fresh luciferin was administered 4 and 24 h after drug administration to reveal acute changes in tumor perfusion.
Acute effects of OXi8007 were examined on Renca-luc tumor-bearing mice using BLI (n = 8) and MSOT (n = 6) by comparing images at the baseline [pre (0 h)] and following OXi8007 administration (IP) at 4 h and 24 h. Dynamic BLI images were acquired every minute over the course of 15–20 min immediately following luciferin injection. For MSOT, the same mice underwent a gas breathing challenge for 5 min in air (21% O2), 7 min in O2 (100% O2), followed by 3 min in air at 0 h, 4 h, and 24 h post-treatment.

[3] = male, BALB/c, mouse, in vivo, 250 mg/kg, brain, after OXi8007 250 mg/kg IP
[4] = male, BALB/c, mouse, in vivo, 250 mg/kg, heart, after OXi8007 250 mg/kg IP
[5] = male, BALB/c, mouse, in vivo, 250 mg/kg, left kidney, after OXi8007 250 mg/kg IP
[6] = male, BALB/c, mouse, in vivo, 250 mg/kg, liver, after OXi8007 250 mg/kg IP
[7] = male, BALB/c, mouse, in vivo, 250 mg/kg, lungs, after OXi8007 250 mg/kg IP
[8] = male, BALB/c, mouse, in vivo, 250 mg/kg, plasma, after OXi8007 250 mg/kg IP
[9] = male, BALB/c, mouse, in vivo, 250 mg/kg, spleen, after OXi8007 250 mg/kg IP
[10] = male, BALB/c, mouse, in vivo, 250 mg/kg, tumor and right kidney, after OXi8007 250 mg/kg IP

COc1ccc2c(C(=O)c3cc(OC)c(OC)c(OC)c3)c(-c3ccc(OC)c(OP(=O)(O)O)c3)[nH]c2c1 [OXi8007]
Effect on microtubule structure (Renca cells): rapid progressive loss of microtubule structure
Concentration in the tumor, molar equivalent ([1]; Renca-luc tumor, from 15 ng/mg): 32 µM
Concentration in the tumor ([1]; Renca-luc tumor, maximum): 15 ng/mg
AUC ([1]; brain, after OXi8007 250 mg/kg IP): 0.11 ng·h/mg
AUC ([1]; heart, after OXi8007 250 mg/kg IP): 1.32 ng·h/mg
AUC ([1]; left kidney, after OXi8007 250 mg/kg IP): 2.05 ng·h/mg
AUC ([1]; liver, after OXi8007 250 mg/kg IP): 12.67 ng·h/mg
AUC ([1]; lungs, after OXi8007 250 mg/kg IP): 2.3 ng·h/mg
concentration at 4 h ([1]; male, BALB/c, mouse, in vivo, 250 mg/kg, plasma, within 4 h after OXi8007 IP): 10 µg/mL
Tmax ([1]; male, BALB/c, mouse, in vivo, 250 mg/kg, Renca-luc tumors, IP administration, read-out: Time to maximum concentration in tumors): ≤ 60 min
half-life [1, 3]: 30.6 min
Cmax [1, 3]: 70 ng/g
Tmax ([1]; male, BALB/c, mouse, in vivo, 250 mg/kg, brain, after OXi8007 250 mg/kg IP, read-out: Tmax (converted)): 60 min
half-life [1, 4]: 36.6 min
Cmax [1, 4]: 1620 ng/g
Tmax ([1]; male, BALB/c, mouse, in vivo, 250 mg/kg, heart, after OXi8007 250 mg/kg IP, read-out: Tmax (converted)): 20 min
half-life [1, 5]: 70.8 min
Cmax [1, 5]: 1400 ng/g
Tmax ([1]; male, BALB/c, mouse, in vivo, 250 mg/kg, left kidney, after OXi8007 250 mg/kg IP, read-out: Tmax (converted)): 20 min
half-life [1, 6]: 66 min
Cmax [1, 6]: 13400 ng/g
Tmax ([1]; male, BALB/c, mouse, in vivo, 250 mg/kg, liver, after OXi8007 250 mg/kg IP, read-out: Tmax (converted)): 20 min
half-life [1, 7]: 42 min
Cmax [1, 7]: 1610 ng/g
Tmax ([1]; male, BALB/c, mouse, in vivo, 250 mg/kg, lungs, after OXi8007 250 mg/kg IP, read-out: Tmax (converted)): 20 min
half-life [1, 8]: 49 min
half-life ([1]; male, BALB/c, mouse, in vivo, 250 mg/kg, plasma, after OXi8007 250 mg/kg IP, Renca-luc tumor-bearing BALB/c mice): 49.2 min
Cmax [1, 8]: 453 µg/mL
Tmax ([1]; male, BALB/c, mouse, in vivo, 250 mg/kg, plasma, after OXi8007 250 mg/kg IP, read-out: Tmax (converted)): 20 min
half-life [1, 9]: 39 min
Cmax [1, 9]: 990 ng/g
Tmax ([1]; male, BALB/c, mouse, in vivo, 250 mg/kg, spleen, after OXi8007 250 mg/kg IP, read-out: Tmax (converted)): 60 min
half-life [1, 10]: 120 min
Cmax [1, 10]: 15000 ng/g
Tmax ([1]; male, BALB/c, mouse, in vivo, 250 mg/kg, tumor and right kidney, after OXi8007 250 mg/kg IP, read-out: Tmax (converted)): 60 min
Plasma concentration ([1]; plasma, maximum, after OXi8007 IP): about 450 µg/mL
AUC ([1]; plasma, after OXi8007 250 mg/kg IP, zero to last quantifiable concentration): 511 ^# h × ng/µL
AUC ([1]; spleen, after OXi8007 250 mg/kg IP): 1.41 ng·h/mg
AUC ([1]; tumor and right kidney, after OXi8007 250 mg/kg IP): 36.31 ng·h/mg
BLI signal relative to baseline ([2]; 4 h after OXi8007 250 mg/kg IP, 8 mice): < 2 % baseline
Histology of tumor ([2]; Renca-luc, within 4 h post-treatment): extensive intratumoral hemorrhage
Vascular shutdown (BLI) ([2]; within 4 h, orthotopic kidney tumors): > 98%

Reference: paper PMC11898701, “Evaluating Therapeutic Efficacy of the Vascular Disrupting Agent OXi8007 Against Kidney Cancer in Mice” (Cancers, 2025)
